Measured values as given in the supplement of paper PMC6045584.
± gives the standard deviation of the averaged measurements.

Key:
SALINOMYCIN = compound: CC[C@@H](C(=O)[C@@H](C)[C@@H](O)[C@H](C)[C@@H]1O[C@@H]([C@@H](CC)C(=O)O)CC[C@@H]1C)[C@H]1O[C@]2(C=C[C@@H](O)[C@]3(CC[C@@](C)([C@H]4CC[C@](O)(CC)[C@H](C)O4)O3)O2)[C@H](C)C[C@@H]1C [SALINOMYCIN]; test: surviving fraction relative to DMSO-only wells; higher = less growth inhibition; conditions: exposure time: 5 days
Summary of the method: (§1)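 Tumour cell lines were grown to log phase and seeded at 250–500 cells per well in 384-well plates. They were exposed continuously to inhibitors at 0.5, 1, 5, 10, 50, 100, 500 and 1000 nM for five days, beginning 24 hours after seeding. Surviving fraction is CellTiter-Glo luminescence normalised to the median of DMSO-only wells.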

FLUOROURACIL = compound: O=c1[nH]cc(F)c(=O)[nH]1 [FLUOROURACIL]; test: as above; conditions: exposure time: 5 days
Summary of the method: as §1

| Test System | surviving fraction (SALINOMYCIN; 0.5 nM) | surviving fraction (SALINOMYCIN; 1 nM) | surviving fraction (SALINOMYCIN; 5 nM) | surviving fraction (SALINOMYCIN; 10 nM) | surviving fraction (SALINOMYCIN; 50 nM) | surviving fraction (SALINOMYCIN; 100 nM) | surviving fraction (SALINOMYCIN; 500 nM) | surviving fraction (SALINOMYCIN; 1000 nM) | surviving fraction (FLUOROURACIL; 0.5 nM) | surviving fraction (FLUOROURACIL; 1 nM) | surviving fraction (FLUOROURACIL; 5 nM) | surviving fraction (FLUOROURACIL; 10 nM) | surviving fraction (FLUOROURACIL; 50 nM) | surviving fraction (FLUOROURACIL; 100 nM) | surviving fraction (FLUOROURACIL; 500 nM) | surviving fraction (FLUOROURACIL; 1000 nM) |
| --- | --- | --- | --- | --- | --- | --- | --- | --- | --- | --- | --- | --- | --- | --- | --- | --- |
| DU4475 BREAST | 0.949 ± 0.23 | 0.893 ± 0.28 | 0.857 ± 0.28 | 0.9 ± 0.33 | 0.793 ± 0.27 | 0.665 ± 0.32 | 0.293 ± 0.18 | 0.17 ± 0.078 | 0.972 ± 0.062 | 1.06 ± 0.068 | 0.934 ± 0.12 | 1.13 ± 0.12 | 1.01 ± 0.16 | 0.987 ± 0.27 | 1.06 ± 0.081 | 0.939 ± 0.1 |
| H23 LUNG | 0.969 ± 0.043 | 0.957 ± 0.055 | 0.9683 ± 0.0096 | 0.959 ± 0.04 | 1.21 ± 0.03 | 1.19 ± 0.028 | 0.622 ± 0.012 | 0.399 ± 0.007 | 1.06 ± 0.062 | 1.02 ± 0.034 | 1.05 ± 0.026 | 1.04 ± 0.036 | 1.1 ± 0.061 | 1.02 ± 0.046 | 1.04 ± 0.044 | 0.659 ± 0.029 |
| HCC78 LUNG | 0.833 ± 0.18 | 0.693 ± 0.063 | 0.855 ± 0.17 | 0.948 ± 0.071 | 0.72 ± 0.095 | 0.697 ± 0.24 | 0.228 ± 0.014 | 0.143 ± 0.022 | 1.01 ± 0.16 | 0.913 ± 0.1 | 1.19 ± 0.12 | 0.986 ± 0.062 | 1.28 ± 0.093 | 1.1 ± 0.15 | 0.973 ± 0.1 | 0.432 ± 0.036 |
| HCC202 BREAST | 1.39 ± 0.31 | 0.95 ± 0.16 | 0.918 ± 0.26 | 1.13 ± 0.17 | 1.03 ± 0.18 | 0.737 ± 0.16 | 0.189 ± 0.037 | 0.109 ± 0.0082 | 1.03 ± 0.41 | 1.22 ± 0.26 | 1.02 ± 0.15 | 1.13 ± 0.24 | 0.966 ± 0.12 | 1.15 ± 0.52 | 0.895 ± 0.3 | 0.866 ± 0.29 |
| HCC1395 BREAST | 1.06 ± 0.1 | 1.26 ± 0.26 | 1.17 ± 0.11 | 1.05 ± 0.15 | 1.16 ± 0.13 | 1.11 ± 0.041 | 0.843 ± 0.13 | 0.751 ± 0.16 | 1.01 ± 0.093 | 0.966 ± 0.21 | 1.13 ± 0.1 | 1.16 ± 0.072 | 0.945 ± 0.1 | 0.955 ± 0.12 | 0.887 ± 0.053 | 0.947 ± 0.077 |
| HCC1806 BREAST | 0.957 ± 0.25 | 0.695 ± 0.59 | 0.819 ± 0.58 | 0.709 ± 0.61 | 0.965 ± 0.17 | 0.873 ± 0.04 | 0.33 ± 0.056 | 0.223 ± 0.0067 | 1.1 ± 0.028 | 1.02 ± 0.12 | 1.08 ± 0.043 | 0.973 ± 0.081 | 0.992 ± 0.069 | 0.939 ± 0.065 | 0.737 ± 0.12 | 0.601 ± 0.033 |
| HCC1954 BREAST | 0.944 ± 0.29 | 0.82 ± 0.39 | 0.919 ± 0.36 | 1.03 ± 0.088 | 0.953 ± 0.011 | 0.725 ± 0.04 | 0.295 ± 0.0032 | 0.172 ± 0.023 | 1.13 ± 0.31 | 1.21 ± 0.17 | 1.13 ± 0.07 | 1.26 ± 0.21 | 0.572 ± 0.11 | 0.629 ± 0.063 | 0.681 ± 0.095 | 0.571 ± 0.018 |
| HCT15 LARGE INTESTINE | 0.933 ± 0.022 | 0.843 ± 0.059 | 0.894 ± 0.028 | 0.589 ± 0.016 | 1.03 ± 0.041 | 0.964 ± 0.015 | 0.893 ± 0.032 | 0.442 ± 0.029 | 1.05 ± 0.062 | 1.01 ± 0.051 | 1.043 ± 0.01 | 0.995 ± 0.06 | 0.976 ± 0.069 | 0.878 ± 0.048 | 0.262 ± 0.013 | 0.163 ± 0.0084 |
| HELA CERVIX | 0.974 ± 0.053 | 0.936 ± 0.068 | 0.97 ± 0.059 | 0.906 ± 0.041 | 1.03 ± 0.06 | 0.885 ± 0.056 | 0.942 ± 0.056 | 0.55 ± 0.045 | 1.07 ± 0.017 | 0.993 ± 0.031 | 0.997 ± 0.019 | 1.03 ± 0.037 | 1.01 ± 0.062 | 1.06 ± 0.027 | 1.3 ± 0.035 | 1.15 ± 0.096 |
| HOS BONE | 0.99 ± 0.0076 | 0.969 ± 0.0052 | 0.997 ± 0.023 | 0.966 ± 0.0082 | 1.03 ± 0.012 | 0.858 ± 0.032 | 0.0367 ± 0.0031 | 0.0627 ± 0.019 | 1.05 ± 0.025 | 1.01 ± 0.017 | 1.02 ± 0.015 | 0.99 ± 0.015 | 1.03 ± 0.039 | 1.01 ± 0.034 | 0.8203 ± 0.0081 | 0.639 ± 0.032 |
| HOSMNG BONE | 0.987 ± 0.1 | 0.945 ± 0.13 | 1.03 ± 0.086 | 0.985 ± 0.15 | 1.05 ± 0.13 | 0.993 ± 0.18 | 0.909 ± 0.09 | 0.511 ± 0.12 | 0.969 ± 0.012 | 1.03 ± 0.037 | 0.933 ± 0.024 | 0.962 ± 0.043 | 1.12 ± 0.13 | 1.19 ± 0.042 | 1.03 ± 0.031 | 1.02 ± 0.037 |
| HSSYII SYNOVIAL | 0.892 ± 0.033 | 0.842 ± 0.027 | 0.864 ± 0.043 | 0.582 ± 0.026 | 0.94 ± 0.017 | 0.743 ± 0.033 | 0.0705 ± 0.0015 | 0.0267 ± 0.0019 | 0.933 ± 0.045 | 0.938 ± 0.078 | 0.992 ± 0.075 | 0.949 ± 0.043 | 0.942 ± 0.016 | 0.911 ± 0.059 | 0.906 ± 0.028 | 0.853 ± 0.02 |
| HT1080 SOFT TISSUE | 1.03 ± 0.034 | 1.02 ± 0.015 | 1.03 ± 0.024 | 1.05 ± 0.031 | 1.06 ± 0.03 | 1.03 ± 0.089 | 0.78 ± 0.035 | 0.557 ± 0.018 | 1.06 ± 0.016 | 1.087 ± 0.0087 | 1.07 ± 0.0075 | 1.07 ± 0.029 | 0.965 ± 0.061 | 0.991 ± 0.021 | 0.637 ± 0.063 | 0.406 ± 0.019 |
| HU09 BONE | 1.06 ± 0.035 | 1.01 ± 0.019 | 1.12 ± 0.14 | 1.03 ± 0.091 | 1.04 ± 0.12 | 0.897 ± 0.077 | 0.476 ± 0.036 | 0.271 ± 0.0068 | 1.06 ± 0.13 | 0.966 ± 0.045 | 1.1 ± 0.022 | 1.1 ± 0.038 | 0.985 ± 0.092 | 0.941 ± 0.051 | 0.693 ± 0.091 | 0.604 ± 0.031 |
| HUO3N1 BONE | 1.01 ± 0.052 | 0.984 ± 0.073 | 1.01 ± 0.04 | 1.02 ± 0.071 | 0.844 ± 0.012 | 0.51 ± 0.023 | 0.167 ± 0.0067 | 0.151 ± 0.0097 | 1 ± 0.047 | 1.06 ± 0.02 | 1.09 ± 0.031 | 1.07 ± 0.05 | 1.03 ± 0.059 | 0.99 ± 0.046 | 0.973 ± 0.036 | 0.91 ± 0.029 |
| JIMT1 BREAST | 0.96 ± 0.014 | 0.977 ± 0.021 | 0.979 ± 0.021 | 0.999 ± 0.021 | 0.988 ± 0.033 | 0.95 ± 0.013 | 0.51 ± 0.024 | 0.356 ± 0.02 | 0.932 ± 0.0056 | 0.899 ± 0.021 | 0.979 ± 0.033 | 0.9068 ± 0.0066 | 0.94 ± 0.038 | 0.884 ± 0.062 | 0.948 ± 0.066 | 0.866 ± 0.076 |
